The results in this text go back to patent US10450260B2, “NO- and H2S-releasing compounds” (RESEARCH FOUNDATION OF THE CITY UNIVERSITY OF NEW YORK, priority 2011, dated 2019).

The test system of one data set is HT-29 cells xenograft. Nature of the data set: HT-29 tumor xenograft in athymic nude mice. The data set is classed as in vivo, mouse. On the procedure:
Male athymic nude (NU/NU) mice (N=8), age 5 weeks, were purchased from Charles River Laboratories, Inc., (Wilmington, Mass.). HT-29 cells (2×10^6) suspended in 50% v/v Matrigel (BD Biosciences, San Jose, Calif.) were inoculated subcutaneously in the right flanks of each mouse. When the tumors reached an average sizes of ˜80 mm^3, the mice were randomly divided (N=4/group) and gavaged daily for 18 days with either vehicle (1% methylcelloluse) or NOSH-1 (100 mg/kg body weight). Tumor size (length and width) was measured at 3 day intervals with an electronic caliper from which tumor volume was calculated as length×width^2/2. The mice were weighed every 3 days and were closely monitored for signs of toxicity.

Another data set relates to COX-2. Nature of the data set: Western blot of COX-2 in paw exudates. Format: in vivo, rat. Particulars: NOSH-1 at 2 doses one hour before carrageenan. How it is done: (§1) Exudates (oedema fluid) and some tissue were homogenized in lysis buffer (0.1% Triton X-100, 50 μM pepstatin, 0.2 mM leupeptin, 1 μg/mL aprotinin, 10 mg/ml phenylmethylsulfonyl fluoride, 50 mM Tris, and 10 mM EDTA). Samples were then centrifuged, and the protein concentration of the supernatant was determined by colorimetric assay (Bio-Rad, Hercules, Calif.). Protein (30 μg) was separated on a 10% polyacrylamide gel and then transferred to a nitrocellulose membrane (Bio-Rad, Hercules, Calif.). Proteins were probed with monoclonal mouse antibody against COX-1 and COX-2 (1:500; Cayman Chemical, Ann Arbor, Mich.). The membrane was then incubated with a goat anti-mouse IgG secondary antibody conjugated to horseradish peroxidase (Santacruz Biotechnology, Santa Cruz, Calif.). A chemiluminescence reagent (Amersham Pittsburg, Pa.) was added to visualize the labeling according to the manufacturer's instructions.
On the technique in general: Immunoblotting shows a protein as a band on a membrane.

In data set [1] the test system is MIA PaCa2 pancreatic cancer cell xenograft. In words: MIA PaCa2 xenograft in athymic nude mice. Format: in vivo, mouse. An excerpt: (§2) Male athymic nude (NU/NU) mice, age 5 weeks, were purchased from Charles River Laboratories, Inc., (Wilmington, Mass.) and were housed according to institutional and NIH guidelines.
(§3) Human colon (SW480), Breast (MCF-7, MDA-MB-231), and pancreas (MIA PaCa2) cancer cells (2×10^6) suspended in Matrigel (BD Biosciences, San Jose, Calif.) 50% v/v were inoculated subcutaneously in the right flanks of each mouse (10 mice per group) using a 1-mL syringe and 22-gauge needles. After 10 days the animals from each implanted cell line were randomly divided into 2 groups (N=5/group) and gavaged daily with either vehicle (1% methylcelloluse) or NOSH-naproxen (100 mg/kg) or NOSH (100 mg/kg), the ADT-OH-butyl nitrate compound that releases H2S and NO, in the case of colon cancer xenografts; or NOSH-aspirin (100 mg/kg body weight) in the breast and pancreatic cancers groups. The tumor size was measured every other day using electronic calipers, the tumor volumes were calculated using the following formula: length×width^2/2. The weights of the mice were also recorded every 3 days. Twenty-seven (27) to thirty (30) days post inoculation, the mice were sacrificed, the tumors collected, weighed, and photographed.

A further data set concerns COX-1. Nature of the data set: Western blot of COX-1 in paw exudates. The data set is classed as in vivo, rat. The settings on record: NOSH-1 at 2 doses one hour before carrageenan. How it is done:
as §1

The subject of data set [2] is MCF-7 (ER+) breast cancer cell xenograft. In words: MCF-7 xenograft in athymic nude mice. The data set is classed as in vivo, mouse.
Source text: as §2, §3

In data set [3] the test system is SW480 colon cancer cell xenograft. Nature of the data set: SW480 xenograft in athymic nude mice. Format: in vivo, mouse.
Source text: as §2, §3

Where [4] appears, read: 100 mg/kg daily, day 30, vs control.

Structures are written as SMILES. “Also recorded” adds a separate entry of the source.

Regarding `O=C(CCCO[N+](=O)[O-])Oc1ccccc1C(=O)Oc1ccc(-c2cc(=S)ss2)cc1` [NOSH-1, 4-(3-thioxo-3H-1,2-dithiol-5-yl)phenyl 2-((4-(nitrooxy)butanoyl)oxy)benzoate], the signs of toxicity entry in the data set with HT-29 cells xenograft (100 mg/kg daily for 18 days) was “no overt signs of toxicity”. Besides, the “mean reduction of tumor volume” value in the data set with HT-29 cells xenograft (100 mg/kg daily for 18 days, vs control) came to 85%; in data set [1] (100 mg/kg daily, vs control), 91%; in data set [2] (100 mg/kg daily, vs control) it was 98%. In addition, the mean tumor volume in the data set with HT-29 cells xenograft (100 mg/kg daily gavage for 18 days, control 2300±200) is on record as 350±35 mm^3; in data set [1] (100 mg/kg daily gavage, end of study, control 3265±476) it was 285±117 mm^3; in data set [2] (100 mg/kg daily gavage, end of study, control 935±93), 48±9 mm^3. For the same compound, in the data set with HT-29 cells xenograft (6 days after treatment to sacrifice, P<0.05 day 6, P<0.01 days 9-18), the “tumor volume versus vehicle (FIG. 7B)” value was “significantly reduced tumor volume”. Moreover, the “average weight of the mice, beginning of the study” value in the data set on HT-29 cells xenograft (treated mice, 100 mg/kg daily) was determined as 21.7 ± 0.82 g. The “average weight of the mice, end of the study” value in the data set on HT-29 cells xenograft (treated mice, 100 mg/kg daily for 18 days) was 27.2 ± 1.1 g. The “COX-2 expression in paw exudates induced by carrageenan” value with COX-2 is on record as “inhibited induction; also recorded: dose-dependently inhibited”. The “reduction of tumor mass” value in data set [1] (setting [4]) is 75%; in data set [2] (100 mg/kg daily, day 27, vs control) it was 55%. Also, the average tumor mass in data set [1] (100 mg/kg daily, day 30, control 2.45±2.7) was found to be 0.61 ± 0.29 g; in data set [2] (100 mg/kg daily, day 27, control 0.46±0.056) it was 0.21 ± 0.035 g. For the same compound, the “COX-1 expression in paw exudates induced by carrageenan” value in the data set on COX-1 was “inhibited induction; also recorded: inhibited to the same extent”.
`CC(C(=O)Oc1ccc(-c2cc(=S)ss2)cc1)c1ccc2cc(OC(=O)CCCO[N+](=O)[O-])ccc2c1` (centres unmarked) [NOSH-7, 6-(1-oxo-1-(4-(3-thioxo-3H-1,2-dithiol-5-yl)phenoxy)propan-2-yl)naphthalen-2-yl 4-(nitrooxy)butanoate]: the mean tumor volume in data set [3] (100 mg/kg daily gavage, end of study, control 2098±603) is listed as 379±73 mm^3. Besides, the “reduction of tumor mass” value in data set [3] (setting [4]) is reported as 55%. The average tumor mass in data set [3] (100 mg/kg daily, day 30, control 1.42±0.48) was 0.63 ± 0.11 g. Moreover, the “mean reduction of tumor volume” value in data set [3] (100 mg/kg daily, vs control) is 82%.
